Data taken from patent US20220396577A1, “NOVEL SUBSTITUTED 1,3-8-TRIAZASPIRO[4,5] DECANE-2,4-DIONE COMPOUNDS AS INDOLEAMINE 2,3-DIOXYGENASE (IDO) AND/OR TRYPTOPHAN 2,3-DIOXYGENASE (TDO) INHIBITORS” (Merck Sharp & Dohme LLC, priority 2019, published 2022).

How the values were obtained:
[1] = target: T1, IDO1 (Homo sapiens, UniProt P14902); test: IDO1 Cellular Assay in HeLa Cells Stimulated with IFNγ (B); type: cell-based; parameters: endogenous in cells; host or cells: HeLa cells stimulated with IFNγ; details: about 48 h, first value of cell, read-out: IDO hela (B) cell IC50
T1 sequence (P14902 whole entry): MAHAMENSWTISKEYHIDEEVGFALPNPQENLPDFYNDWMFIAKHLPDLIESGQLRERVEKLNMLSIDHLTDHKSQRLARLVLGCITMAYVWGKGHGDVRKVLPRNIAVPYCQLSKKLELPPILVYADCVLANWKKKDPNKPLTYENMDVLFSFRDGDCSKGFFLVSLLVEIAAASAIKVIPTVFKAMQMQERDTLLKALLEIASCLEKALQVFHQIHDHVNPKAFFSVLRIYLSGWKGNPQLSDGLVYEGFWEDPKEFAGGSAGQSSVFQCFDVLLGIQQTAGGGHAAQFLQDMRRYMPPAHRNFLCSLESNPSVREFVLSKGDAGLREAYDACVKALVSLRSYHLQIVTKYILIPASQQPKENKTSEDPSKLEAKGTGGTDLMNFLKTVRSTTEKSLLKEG
Method: HeLa cells were cultured in complete HeLa culture medium (90% EMEM, 10% heat-inactivated fetal bovine serum) and expanded to about 1×10^9 cells. The cells were then collected and frozen down at 1×10^7 cells/vial in 1 mL frozen medium (90% complete HeLa culture medium, 10% DMSO).
Compounds to be tested were serially diluted in ten 3-fold steps in DMSO starting from 10 mM DMSO stocks in Echo low volume plate(s). Compound dilutions or DMSO alone were then dispensed from the dilution plate(s) into Greiner black 384-well assay plate(s) (catalog #781086, 50 nL/well) using an Echo 550 acoustic liquid handler (Labcyte).
Frozen HeLa cells were thawed and transferred into HeLa assay medium (99% complete HeLa culture medium, 1% Pen/Strep) with 20 mL medium/vial of cells. […] The cells were then counted and adjusted to a density of 2×10^5 cells/mL in HeLa assay medium. […]
HeLa cells with and without IFNγ were dispensed to the respective wells of 384-well assay plates containing the compounds. […] The resulting fluorescence was measured in a Spectramax plate reader (Molecular Devices) with a 400 nm excitation filter and a 510 nm emission filter.
The fluorescence intensity of each well was corrected for the background observed in wells with non-IFNγ-treated cells and was expressed as a fraction of the intensity observed in wells of IFNγ-treated cells and DMSO only. […]

[2] = target: CDK9 (Cyclin T1) (Homo sapiens, UniProt P50750); test: Off-target kinase panel, ADAPTA: CDK9 (Cyclin T1); type: biochemical; details: read-out: Estimated IC50 (uM) CDK9 (Cyclin T1)
Chain of CDK9 (Cyclin T1) (P50750 whole entry): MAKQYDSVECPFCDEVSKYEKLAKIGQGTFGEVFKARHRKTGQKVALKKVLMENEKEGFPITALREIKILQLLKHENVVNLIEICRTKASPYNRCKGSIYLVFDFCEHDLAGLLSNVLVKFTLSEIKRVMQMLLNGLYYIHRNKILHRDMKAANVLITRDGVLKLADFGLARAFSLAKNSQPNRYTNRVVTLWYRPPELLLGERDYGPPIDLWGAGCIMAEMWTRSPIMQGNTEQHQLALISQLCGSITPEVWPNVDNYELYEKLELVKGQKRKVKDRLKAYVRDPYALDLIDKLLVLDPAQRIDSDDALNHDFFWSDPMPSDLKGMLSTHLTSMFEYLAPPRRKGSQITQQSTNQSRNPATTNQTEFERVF
Chain of CDK9 (Cyclin T1) (O60563 whole entry partner): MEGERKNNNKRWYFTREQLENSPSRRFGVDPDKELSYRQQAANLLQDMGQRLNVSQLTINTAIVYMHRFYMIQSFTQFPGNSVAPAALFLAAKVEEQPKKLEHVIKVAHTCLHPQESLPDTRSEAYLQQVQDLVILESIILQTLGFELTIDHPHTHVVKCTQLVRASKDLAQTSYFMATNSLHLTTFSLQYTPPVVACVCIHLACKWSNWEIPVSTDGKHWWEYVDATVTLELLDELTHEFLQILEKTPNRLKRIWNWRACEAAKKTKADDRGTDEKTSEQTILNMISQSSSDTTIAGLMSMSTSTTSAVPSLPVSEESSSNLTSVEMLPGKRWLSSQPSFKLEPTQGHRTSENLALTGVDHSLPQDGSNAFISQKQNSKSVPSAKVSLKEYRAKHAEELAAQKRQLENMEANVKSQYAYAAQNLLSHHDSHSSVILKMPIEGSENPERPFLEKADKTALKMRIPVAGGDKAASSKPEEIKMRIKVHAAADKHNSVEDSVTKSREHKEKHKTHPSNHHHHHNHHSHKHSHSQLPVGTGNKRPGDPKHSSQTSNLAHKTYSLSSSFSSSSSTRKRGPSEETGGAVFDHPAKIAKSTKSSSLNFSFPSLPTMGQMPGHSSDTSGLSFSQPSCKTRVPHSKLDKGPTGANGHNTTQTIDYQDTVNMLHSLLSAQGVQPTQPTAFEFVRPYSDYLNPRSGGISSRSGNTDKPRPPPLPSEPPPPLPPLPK
Text: The activity data was obtained in a panel of 265 and 264 for compounds 1-1 and CC-1, respectively, using the ZLYTE and ADAPTA assay methods indicated in the table below.
The Adapta universal kinase assay is a homogenous, fluorescent based immunoassay for the detection of ADP. In contrast to ATP depletion assays, the Adapta assay is highly sensitive to ADP formation such that a majority of the signal change occurs in the first 10-20% conversion of ATP to ADP. This makes the Adapta universal kinase assay well suited for use with low activity kinases.
The principle of the Adapta universal kinase assay is outlined below. The assay itself can be divided into two phases: a kinase reaction phase, and an ADP detection phase. In the kinase reaction phase, all components required for the kinase reaction are added to the well, and the reaction is allowed to incubate for 60 minutes. After the reaction, a detection solution consisting of a europium labeled anti-ADP antibody, an Alexa Fluor 647 labeled ADP tracer, and EDTA (to stop the kinase reaction) is added to the assay well. […]
ADP formation is determined by calculating the emission ratio from the assay well. The emission ratio is calculated by dividing the intensity of the tracer (acceptor) emission by the intensity of the Eu (donor) emission at 615 nm as shown in the equation below. […]
12. Read on fluorescence plate reader and analyze the data.

[3] = target: T1, IDO1; test: IDO1 Enzymatic Assay (A); type: biochemical; details: recombinant HIS-tagged IDO1, 40 nM; read-out: IDO enzymatic IC50, nM (A)
Method: Compounds to be tested were serially diluted in ten 3-fold steps in DMSO starting from 10 mM DMSO stocks. Compound dilutions or DMSO alone were then dispensed from the dilution plate into a Greiner black 384-well assay plate (catalog #781086) using an Echo 555 acoustic liquid handler (Labcyte). HIS-tagged IDO1 protein (Genbank #: NM_002164) was recombinantly expressed in Escherichia coli using ZYP5052 auto induction media supplemented with 500 μM delta aminolevulinic acid for 48 h at 16° C. IDO1 protein was purified using Ni^2+-affinity resin and size exclusion chromatography. Purified protein was then diluted in assay buffer (50 mM Tris pH 7.0, 1% glycerol, 20 μM methylene blue, 0.05% Tween-20, 20 mM sodium ascorbate, 100 units/mL catalase) to obtain a final IDO1 concentration of 40 nM. […] were dispensed to wells of the assay plate using a BioRAPTR liquid dispenser (Beckman Coulter). Assay plates containing compound and IDO1 enzyme were incubated at RT for 30 min. Afterwards, 10 μL of 400 μM tryptophan in assay buffer were added to each well of the assay plate using a BioRAPTR liquid dispenser. […] The resulting fluoresence was measured in an Envision plate reader (Perkin Elmer) with a 400/25 nm excitation filter and an 510/20 nm emission filter. […] Potencies were calculated by linear least squares fit to the four parameter logistic IC50 equation.

Structure (SMILES) | IC50 [1] [nM] | IC50 [2] [µM] | IC50 [3] [nM]
C[C@@H]1CN(c2cc(Br)cc3[nH]ncc23)CC[C@]12NC(=O)NC2=O (single isomer, unassigned) [Compound 1-1] | 77 | > 2 | 129
O=C1NC(=O)C2(CCN(c3cc(Cl)cc4[nH]ncc34)CC2)N1 [CC-1] | 97 | 0.15 | 113
